Results taken from patent US9328374B2, “Selective culture medium and method for detecting carbapenem-resistant bacteria in a test sample” (Institut National de la Sante et de la Recherche Medicale …, priority 2011, dated 2016).
Like-named read-outs stand apart in the source and are kept apart here.

Assays:
K. pneumoniae = assay: MIC of imipenem, ertapenem and meropenem; format: cell-based, Klebsiella pneumoniae; settings: Klebsiella pneumoniae, read-out: MIC
P. stuartii = assay: MIC of imipenem, ertapenem and meropenem; format: cell-based, Providencia stuartii

C[C@@H](O)[C@H]1C(=O)N2C(C(=O)O)=C(S[C@@H]3CN[C@H](C(=O)Nc4cccc(C(=O)O)c4)C3)[C@H](C)[C@H]12 [ETP, ertapenem]
MIC (K. pneumoniae; K. pneumoniae HPA, OXA-48 + TEM-1 + CTX-M-15 + OXA-1): > 32 µg/mL
MIC (K. pneumoniae; K. pneumoniae IND (NDM-1 + OXA-1 + CTX-M-15)): 8 µg/mL
MIC (K. pneumoniae; K. pneumoniae KAM, KPC-3 + TEM-1 + SHV-11): 12 µg/mL
MIC (K. pneumoniae; K. pneumoniae KDH (DHA-2)): 0.5 µg/mL
MIC (K. pneumoniae; K. pneumoniae KI2, NDM-1 + CTX-M-15 + OXA-1): 8 µg/mL
MIC (K. pneumoniae; K. pneumoniae KIE, NDM-1 + SHV-38 + CMY-16 + OXA-10): 2 µg/mL
MIC (K. pneumoniae; K. pneumoniae KPN (CTX-M-15)): 0.12 µg/mL
MIC (K. pneumoniae; K. pneumoniae KPN, CTX-M-15, non-carbapenemase producer): 0.012 µg/mL
MIC (K. pneumoniae; K. pneumoniae LEG (CTX-M-15 + TEM-1 + SHV-12)): > 32 µg/mL
MIC (K. pneumoniae; K. pneumoniae LEG, CTX-M-15 + TEM-1 + SHV-12, non-carbapenemase producer, porin deficiency): > 32 µg/mL
MIC (K. pneumoniae; K. pneumoniae LIB (OXA-48)): > 32 µg/mL
MIC (K. pneumoniae; K. pneumoniae LIB, OXA-48): 16 µg/mL
MIC (K. pneumoniae; K. pneumoniae LIE, KPC-2 + TEM-2 + OXA-9): > 32 µg/mL
MIC (K. pneumoniae; K. pneumoniae LOU, OXA-48): 16 µg/mL
MIC (K. pneumoniae; K. pneumoniae MAD (VIM-1 + CTX-M-3)): 0.5 µg/mL
MIC (K. pneumoniae; K. pneumoniae MAD, VIM-1+ CTX-M-3): 0.5 µg/mL
MIC (K. pneumoniae; K. pneumoniae MEK (CTX-M-15 + SHV-11)): > 32 µg/mL
MIC (K. pneumoniae; K. pneumoniae MEK, CTX-M-15 + SHV-11, non-carbapenemase producer, porin deficiency): > 32 µg/mL
MIC (K. pneumoniae; K. pneumoniae MUS (KPC-2 + TEM-1 + SHV-11 + SHV-12)): 4 µg/mL
MIC (K. pneumoniae; K. pneumoniae MUS, KPC-2 + TEM-1 + SHV-11 + SHV-12): 4 µg/mL
MIC (K. pneumoniae; K. pneumoniae OM2 (NDM-1 + TEM-1 + CTX-M-3 + SHV-11 + OXA-1)): 8 µg/mL
MIC (K. pneumoniae; K. pneumoniae OM2, NDM-1 + TEM-1 + CTX-M-3 + SHV-11 + OXA-1): 8 µg/mL
MIC (K. pneumoniae; K. pneumoniae OM4, NDM-1 + TEM-1 + CTX-M-15 + SHV-12 + OXA-9): > 32 µg/mL
MIC (K. pneumoniae; K. pneumoniae OM8, NDM-1 + TEM-1 + CTX-M-15 + SHV-11 + OXA-1): > 32 µg/mL
MIC (K. pneumoniae; K. pneumoniae OM11, OXA-48 + TEM-1 + CTX-M-14): 0.75 µg/mL
MIC (K. pneumoniae; K. pneumoniae OM13, NDM-1 + TEM-1 + CTX-M-15 + SHV-28 + OXA-1 + OXA-9): 4 µg/mL
MIC (K. pneumoniae; K. pneumoniae OM14, OXA-48 + TEM-1): 1 µg/mL
MIC (K. pneumoniae; K. pneumoniae OM15, NDM-1 + CTX-M-15 + SHV-130 + OXA-1): 12 µg/mL
MIC (K. pneumoniae; K. pneumoniae OM16, NDM-1 + CTX-M-15 + OXA-1 + OXA-181): > 32 µg/mL
MIC (K. pneumoniae; K. pneumoniae OM19, NDM-1 + CTX-M-15 + SHV-12 + OXA-1): 24 µg/mL
MIC (K. pneumoniae; K. pneumoniae OMA419 (NDM-1 + OXA-1)): 6 µg/mL
MIC (K. pneumoniae; K. pneumoniae OMA419, NDM-1 + OXA-1): 6 µg/mL
MIC (K. pneumoniae; K. pneumoniae OMA601, NDM-1 + CTX-M-15 + OXA-1 + OXA-9): > 32 µg/mL
MIC (K. pneumoniae; K. pneumoniae OMA (OXA-181 + CTX-M-15 + OXA-1)): 2 µg/mL
MIC (K. pneumoniae; K. pneumoniae OMA, OXA-181 + CTXM-15 + OXA-1): 2 µg/mL
MIC (K. pneumoniae; K. pneumoniae RAM (OXA-48)): 4 µg/mL
MIC (K. pneumoniae; K. pneumoniae RAM, OXA-48): 4 µg/mL
MIC (K. pneumoniae; K. pneumoniae ROB (OXA-48 + CTX-M-15 + TEM-1)): 3 µg/mL
MIC (K. pneumoniae; K. pneumoniae ROU (OXA-48 + CTX-M-15)): 1.5 µg/mL
MIC (K. pneumoniae; K. pneumoniae ROU, OXA-48 + CTX-M-15): 1.5 µg/mL
MIC (K. pneumoniae; K. pneumoniae SCO (OXA-48)): 0.75 µg/mL
MIC (K. pneumoniae; K. pneumoniae SCO, OXA-48): 0.75 µg/mL
MIC (K. pneumoniae; K. pneumoniae SHI (CTX-M-15 + TEM-1 + SHV-1)): 1 µg/mL
MIC (K. pneumoniae; K. pneumoniae SHI, CTX-M-15 + TEM-1 + SHV-11, non-carbapenemase producer, porin deficiency): 1 µg/mL
MIC (K. pneumoniae; K. pneumoniae SHM (CTX-M-15 + TEM-1 + SHV-11)): > 32 µg/mL
MIC (K. pneumoniae; K. pneumoniae SHM, CTX-M-15 + TEM-1 + SHV-11, non-carbapenemase producer, porin deficiency): > 32 µg/mL
MIC (K. pneumoniae; K. pneumoniae SIC (OXA-48 + CTX-M-15 + SHV-28)): 1 µg/mL
MIC (K. pneumoniae; K. pneumoniae SIC, OXA-48 + CTX-M-15 + SHV-28): 1 µg/mL
MIC (K. pneumoniae; K. pneumoniae SIM (CTX-M-15 + TEM-1 + SHV-1)): > 32 µg/mL
MIC (K. pneumoniae; K. pneumoniae SIM, CTX-M-15 + TEM-1 + SHV-1, non-carbapenemase producer, porin deficiency): > 32 µg/mL
MIC (K. pneumoniae; K. pneumoniae TAW, IMP-8 + SHV-12): 0.5 µg/mL
MIC (K. pneumoniae; K. pneumoniae TIK, OXA-48): 2 µg/mL
MIC (K. pneumoniae; K. pneumoniae TUR (IMP-1)): 2 µg/mL
MIC (K. pneumoniae; K. pneumoniae TUR, IMP-1): 2 µg/mL
MIC (K. pneumoniae; K. pneumoniae TWA, IMP-8): 1 µg/mL
MIC (K. pneumoniae; K. pneumoniae UK (NDM-1 + CTX-M-15 + CMY-4 + OXA-1)): > 32 µg/mL
MIC (K. pneumoniae; K. pneumoniae UK, NDM-1 + CTX-M-15 + CMY-4 + OXA-1): > 32 µg/mL
MIC (K. pneumoniae; K. pneumoniae VER, OXA-48 + TEM-1 + CTX-M-15 + SHV-11): 2 µg/mL
MIC (K. pneumoniae; K. pneumoniae VSG (OXA-48 + TEM-1 + CTX-M-15 + OXA-1)): 3 µg/mL
MIC (K. pneumoniae; K. pneumoniae VSG, OXA-48 + TEM-1 + CTX-M-15 + OXA-1): 3 µg/mL
MIC (K. pneumoniae; K. pneumoniae YC, KPC-2 + TEM-1 + SHV-11 + SHV-12 + OXA-9): 24 µg/mL
MIC (K. pneumoniae; strain K. pneumoniae 7725, SHV-1, non-carbapenemase producer): 0.006 µg/mL
MIC (K. pneumoniae; strain K. pneumoniae 648236, SHV-2a, non-carbapenemase producer): 2 µg/mL
MIC (K. pneumoniae; strain K. pneumoniae ALE, CTX-M-15 + SHV-1, non-carbapenemase producer): > 32 µg/mL
MIC (K. pneumoniae; strain K. pneumoniae AMS, OXA-48 + TEM-1 + CTX-M-15 + OXA-1): 2 µg/mL
MIC (K. pneumoniae; strain K. pneumoniae BAJ, OXA-48 + TEM-1 + CTX-M-15 + SHV-28): 1.5 µg/mL
MIC (K. pneumoniae; strain K. pneumoniae BED, CTX-M-15 + TEM-1 + SHV-11, non-carbapenemase producer): > 32 µg/mL
MIC (K. pneumoniae; strain K. pneumoniae BEL, OXA-48): 4 µg/mL
MIC (K. pneumoniae; strain K. pneumoniae BEN, OXA-48 + TEM-1 + CTX-M-15 + SHV-28): 1 µg/mL
MIC (K. pneumoniae; strain K. pneumoniae BER, SHV-28 + TEM-1, non-carbapenemase producer): 4 µg/mL
MIC (K. pneumoniae; strain K. pneumoniae ELK, OXA-48 + TEM-1 + CTX-M-15 + SHV-11): 3 µg/mL
MIC (K. pneumoniae; strain K. pneumoniae HOL, OXA-181 + CTX-M-15): 4 µg/mL
MIC (K. pneumoniae; strain K. pneumoniae MUS, KPC-2 + TEM-1 + SHV-11 + SHV-12): 4 µg/mL
MIC (K. pneumoniae; strain K. pneumoniae OM2, NDM-1 + TEM-1 + CTX-M-3 + SHV-11 + OXA-1): 8 µg/mL
MIC (K. pneumoniae; strain K. pneumoniae OMA419, NDM-1 + OXA-1): 6 µg/mL
MIC (K. pneumoniae; strain K. pneumoniae OMA, OXA-181 + CTXM-15 + OXA-1): 2 µg/mL
MIC (K. pneumoniae; strain K. pneumoniae ROU, OXA-48 + CTX-M-15): 1.5 µg/mL
MIC (K. pneumoniae; strain K. pneumoniae SCO, OXA-48): 0.75 µg/mL
MIC (K. pneumoniae; strain K. pneumoniae SIC, OXA-48 + CTX-M-15 + SHV-28): 1 µg/mL
MIC (K. pneumoniae; strain K. pneumoniae VSG, OXA-48 + TEM-1 + CTX-M-15 + OXA-1): 3 µg/mL
MIC (P. stuartii; P. stuartii PS1 (NDM-1 + CMY-6 + OXA-1)): 0.38 µg/mL
MIC (P. stuartii; P. stuartii PS1, NDM-1 + CMY-6 + OXA-1): 0.38 µg/mL
MIC (P. stuartii; Providencia stuartii, P. stuartii NDM (NDM-1 + OXA-1 + CMY-6), read-out: MIC): 0.38 µg/mL
MIC (P. stuartii; strain P. stuartii PS1, NDM-1 + CMY-6 + OXA-1): 0.38 µg/mL
